US20240423208A1, “AGRICULTURAL COMPOSITION AND METHOD FOR CULTIVATING PLANTS USING SAME” (KANEKA CORPORATION, priority 2022, published 2024)

Tests used:
[1] = tested on: Lettuce (the cultivar: Souther); assay: Experiment 1: lettuce growth, total dry weight after bottom watering; format: in vivo; conditions: compositions with 15 mass % GSSG, 10 mass % ALN, 5 mass % ferrous material, 15 mass % seaweed extract; diluted 1000-fold, bottom watering 3 and 4 weeks after seeding
Method: Lettuce (the cultivar: Souther) was raised in a plant incubator. Three weeks after the seeding and four weeks after the seeding, a composition comprising 15 mass % oxidized glutathione (GSSG), 10 mass % allantoin (ALN), 5 mass % ferrous material, or 15 mass % seaweed extract, or a composition comprising a combination of 15 mass % GSSG and any of 10 mass % ALN, 5 mass % ferrous material, or 15 mass % seaweed extract was applied to the lettuce. Each composition was diluted 1000-fold, and each resulting solution was applied by bottom watering.
Four weeks after the seeding, the seedling was transplanted into a pot, grown in a glass greenhouse for two weeks, and then, evaluated (repeated 9 times).
Assuming that the value of the total dry weight of the lettuce to which water alone was applied was 100, the total dry weight of the lettuce to which each composition was applied was expressed.

[2] = tested on: lettuce (the cultivar: Lollo Rosso or Red Oak); assay: Experiment 10: visual evaluation of lettuce coloration after leaf spraying; format: in vivo; parameters: key: The same degree of coloration as T1 was rated CC; slightly more coloration than T1 was rated BB; much more coloration than T1 was rated AA; conditions: GSSG 0.125%, ALN 0.5%; sprayed on leaves approximately 1 g/head; one week after spraying; compared with T1
Method: Culture soil was put in a 9 cm plastic pot, and seeded with lettuce (the cultivar: Lollo Rosso or Red Oak). After the seeding, the lettuce was grown in an environmentally controlled greenhouse set at 28° C. during the daytime and at 18° C. during the nighttime. Three weeks after the seeding, each test solution shown in Table 5 was sprayed on the leaves at approximately 1 g/head. One week after the spraying, the appearance of the lettuce was visually observed, and the degree of coloration was evaluated. The evaluation was based on a comparison with T1 (the control). The same degree of coloration as T1 was rated CC, slightly more coloration than T1 was rated BB, and much more coloration than T1 was rated AA.

[3] = tested on: Lettuce (the cultivar: Souther); assay: Experiment 2: lettuce growth under high-temperature stress, total dry weight; format: in vivo; conditions: diluted 1000-fold, bottom watering, 40° C. for two hours
Method: Lettuce (the cultivar: Souther) was raised in a plant incubator. Three weeks after the seeding and four weeks after the seeding, a fertilizer composition comprising 5 mass % GSSG, 10 mass % ALN, or 20 mass % ALN, a fertilizer composition comprising neither GSSG nor ALN, or a fertilizer composition comprising a combination of 5 mass % GSSG and each concentration of ALN was applied. Each fertilizer composition was diluted 1000-fold, and the resulting solution was applied by bottom watering.
Four weeks after the seeding, the seedling was transplanted into a pot, subjected to high-temperature stress at 40° C. for two hours in a plant incubator, and grown for one week. Then, the seedling was transferred into a glass greenhouse, grown for one week, and then, evaluated (repeated 9 times).
Assuming that the value of the total dry weight of the lettuce to which the fertilizer composition comprising neither GSSG nor ALN was applied alone was 100, the total dry weight of the lettuce to which each composition was applied was expressed.

grape VR cell = assay: Experiment 9: cumulative amount of anthocyanin in cultured grape VR cell; format: cell-based; conditions: GSSG 0.1%, ALN 0.4%; 10 μL at start and 100 μL on 3rd day; measured on 11th day of culture
Method: A grape VR cell was cultured in an LS agar culture medium, and the cumulative amount of anthocyanin was measured. The solution for each treatment section as shown in Table 4 was delivered into the cell cluster by drops in an amount of 10 μL at the beginning of the culture, and in an amount of 100 μL on the 3rd day of culture. The amount of anthocyanin was measured on the 11th day of culture. The culture was performed at 27° C. under light irradiation.

NC(=O)NC1NC(=O)NC1=O (stereo not drawn) [ALN, 5-ureidohydantoin]
total dry weight of the lettuce (water alone = 100) [1]: 123 | degree of coloration, Lollo Rosso [2]: BB | degree of coloration, Red Oak [2]: BB | total dry weight of the lettuce (fertilizer composition with neither GSSG nor ALN = 100) ([3]; ALN 10%, GSSG 0% or 5%): 104 | total dry weight of the lettuce (fertilizer composition with neither GSSG nor ALN = 100) ([3]; ALN 20%, GSSG 0% or 5%): 115 | cumulative amount of anthocyanin (grape VR cell): neither GSSG alone nor ALN alone affected

[Fe+2] [Ferrous iron]
total dry weight of the lettuce (water alone = 100) [1]: 98

oxidized glutathione [GSSG]
total dry weight of the lettuce (water alone = 100) [1]: 113 | degree of coloration, Lollo Rosso [2]: CC | degree of coloration, Red Oak [2]: BB | total dry weight of the lettuce (fertilizer composition with neither GSSG nor ALN = 100) ([3]; ALN 0%, GSSG 5 mass %): 108 | cumulative amount of anthocyanin (grape VR cell): neither GSSG alone nor ALN alone affected
